Assays:
[1] = system: different types of blood cancer; conditions: cited from earlier work
[2] = system: Colon 38 (C38, a C57BL/6J mouse colon adenocarcinoma cell line) tumor; assay: C38 (Colon 38) subcutaneous tumor model, tumor volume; assay type: in vivo; conditions: female C57BL/6J mice, 20 per group; 4SC-202 20 mg/kg PO twice daily x24; antibodies 10 mg/kg IP (anti-PD1 TWx2, anti-LAG-3 Q3Dx4); data to day 27
Experimental: • 4SC-202 (tosylate salt). • Anti-PD1 antibody (clone: RMP1-14, catalog: BE0146, isotype: Rat IgG2a, Bioxcell), • Anti-LAG-3 antibody (clone: C9B7W, catalog: BE0174, isotype: Rat lgG1, Bioxcell),
• 4SC-202 was suspended in 2% aqueous methocel solution at 2 mg/ml (active compound). • Anti-PD-1 and anti-LAG3 antibody was diluted with PBS in order to reach final concentration of 1 mg/ml.
• 4SC-202 was administered at 20 mg/kg twice daily, based on 4SC-202 free base. • The anti-PD-1 and anti-LAG3 antibody was injected at 10 mg/kg per injection,
• 4SC-202 was administered by oral gavage (per os, PO) via a gavage tube. • The antibodies were injected intraperitoneally into the peritoneal cavity of mice. • In all cases, the administration volume was 10 mUkg adjusted to the most recent individual body weight of mice.
Colon 38 (C38, a C57BL/6J mouse colon adenocarcinoma cell line) tumor fragments.
The C38 fragments are stored frozen in DMSO/SVF/RPMI 1640 medium (10/10/80) in liquid nitrogen until use. In the study part 1, C38 frozen fragments were thawed at 37° C. for 5 min, rinsed twice in RPMI 1640 medium before subcutaneous (SC) implantation in mice.
Thirty-five (35) female C57BL/6J mice were subcutaneously implanted into the right flank with C38 tumor fragments. […]

[3] = 24 heavily pre-treated patients with different types of blood cancer

What does the source list for `Cn1cc(-c2ccc(S(=O)(=O)n3ccc(/C=C/C(=O)Nc4ccccc4N)c3)cc2)cn1` [Compound 4SC-202, (E)-N-(2-aminophenyl)-3-(1-((4-(1-methyl-1H-pyrazol-4-yl)phenyl)sulfonyl)-1H-pyrrol-3-yl)acrylamide]?
disease control [1, 3]: 83 % of the patients; long-term stabilization [1, 3]: 50 % of patients; tolerability [1, 3]: well tolerated with few and/or manageable adverse events; complete remission, duration ([1]; one complete remission among 24 heavily pre-treated patients): 28 months; partial responder, duration ([1]; one partial responder among 24 heavily pre-treated patients): 8 months; tumor growth reduction / anti-tumoral efficacy (in words) [2]: reduced tumor growth to a certain extent

Source: patent US20230201161A1, “Combination comprising HDAC inhibitor, LAG-3 inhibitor and a PD-1 inhibitor or PD-L1 inhibitor for cancer treatment” (4SC AG, priority 2018, published 2023)
